# Tests used:
# BACE1 [1] = molecular target: T1, BACE1 (Homo sapiens (Human), UniProt P56817); assay: BACE1 binding assay (SPA-based radioligand binding); settings: pH 4.5, 10 nM radioligand, Ki calculated from IC50
# Procedure: The binding assay was performed as SPA-based assay using a biotinylated form of human BACE1 recombinantly expressed and subsequently purified from Freestyle HEK293 cells. The binding assay was run in a 50 mM sodium acetate buffer, pH 4.5 containing 50 mM NaCl and 0.03% Tween-20 in white clear bottom 384 plates (Corning #3653). 10 nM (final concentration) radioligand ([^3H]—N-((1S,2R)-1-benzyl-3-cyclopropylamino-2-hydroxy-propyl)-5-(methanesulfonyl-methyl-amino)-N—((R)-1-phenyl-ethyl)-isophthalamide) (TRQ11569 purchased from GE Healthcare) was mixed with test compound at a given concentration, 6 nM (final concentration) human BACE1 and 25 μg Streptavidin coated PVT core SPA beads (RPNQ0007, GE Healthcare Life Sciences) in a total volume of 40 μl. Several concentrations of each test compound were tested in the assay for IC50 determination. The plates were incubated for one hour at room temperature and counted in a Wallac Trilux counter. Total and non-specific binding were determined using buffer and 1 μM (final concentration) of the high affinity BACE1 reference inhibitor (S)-6-[3-chloro-5-(5-prop-1-ynyl-pyridin-3-yl)-thiophen-2-yl]-2-imino-3,6-dimethyl-tetrahydro-pyrimidin-4-one, respectively. For each test compound, a IC50 value (the concentration mediating 50% inhibition of the specific binding of the radioligand) was determined from concentration-response curve and used to calculate the Ki from the equation Ki=IC50/(1+L/Kd), where L and Kd are the final concentration of the radioligand used in the assay and the dissociation constant of the radioligand, respectively. The Kd of the radioligand was determined from saturation binding experiments.
# BACE1 [2] = molecular target: T1, BACE1; assay: BACE1 efficacy assay (FRET-based, commercial BACE1 kit); format: biochemical; settings: 10 μM test compound
# Procedure: The efficacy assay was performed as a FRET-based assay using a commercially available BACE1 kit (Life Technologies, P2985). 2 μl test compound at 10 μM (final concentration) and 15 μl BACE1 enzyme from the kit (final concentration 3 nM) were preincubated for 15 minutes at room temperature before addition of 15 μl of substrate from the kit (250 nM final concentration) and incubated for additional 90 minutes at room temperature. The assay plate was subsequently read in a Pherastar (Ex540/Em590). The enzyme activity observed in presence of test compound were normalized to the enzyme activity observed in presence of buffer and 10 μM (final concentration) of the high affinity BACE1 reference inhibitor (S)-6-[3-Chloro-5-(5-prop-1-ynyl-pyridin-3-yl)-thiophen-2-yl]-2-imino-3,6-dimethyl-tetra-hydropyrimidin-4-one, respectively. The efficacy of the test compounds was evaluated at 10 μM (final concentration) and defined as the percent inhibition of the enzyme activity using the equation % inhibition=100%−normalized enzyme activity in percent.
# P-gp (MDR1) = assay: MDCK-MDR1 assay (permeability, efflux ratio); format: in vitro ADME; settings: dog, Papp BA/Papp AB, 60-minute incubation, Pgp substrate when ≥2
# Procedure: The permeability of the test compounds was assessed in MDCK-MDR1 cells that were cultured to confluency (4-6 days) in a 96 transwell plate. Test compounds were diluted with the transport buffer (HBSS+1% BSA) to a concentration of 0.5 μM and applied to the apical or basolateral side of the cell monolayer. Permeation of the test compounds from A to B direction or B to A direction was determined in triplicate over a 60-minute incubation time at 37° C. and 5% CO2 with a relative humidity of 95%. Test compounds were quantified by LC-MS/MS analysis based on the peaks area ratios of analyte/IS in both the receiver and donor wells of the transwell plate.
# The apparent permeability coefficient Papp (cm/s) was calculated using the equation: Papp=(dCr/dt)×Vr/(A×C0)
# Where dCr/dt is the cumulative concentration of compound in the receiver chamber as a function of time (M/s); Vr is the solution volume in the receiver chamber (0.05 mL on the apical side; 0.25 mL on the basolateral side); A is the surface area for the transport, i.e. 0.0804 cm^2 for the area of the monolayer; C0 is the initial concentration in the donor chamber (VIM).
# Compounds are classified Pgp substrates when efflux ratio (Papp BA/Papp AB) is ≥2.
# T1 sequence (P56817 46-501): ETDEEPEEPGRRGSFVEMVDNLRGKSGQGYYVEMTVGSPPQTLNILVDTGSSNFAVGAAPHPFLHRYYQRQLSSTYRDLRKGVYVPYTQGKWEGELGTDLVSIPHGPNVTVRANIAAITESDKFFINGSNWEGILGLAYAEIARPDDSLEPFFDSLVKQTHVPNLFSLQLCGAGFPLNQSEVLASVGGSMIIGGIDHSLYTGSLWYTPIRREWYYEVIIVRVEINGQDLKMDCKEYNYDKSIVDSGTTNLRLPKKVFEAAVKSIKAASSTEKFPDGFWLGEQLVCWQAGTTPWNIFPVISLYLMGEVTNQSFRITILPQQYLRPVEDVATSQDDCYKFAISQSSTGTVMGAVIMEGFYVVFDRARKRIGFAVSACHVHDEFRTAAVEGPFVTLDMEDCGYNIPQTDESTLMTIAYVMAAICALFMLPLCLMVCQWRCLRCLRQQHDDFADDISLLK
Ki (BACE1 [1]) [nM],inhibition at 10 µM (BACE1 [2]) [%],"efflux ratio at 60 min, 0.5 μM (P-gp (MDR1))",Compound
6.8,101,1.24,"[2H]C([2H])([2H])Oc1ccc(C(=O)Nc2cc(F)c(F)c([C@@]3(C)N=C(N)[C@](C)(F)C[C@@H]3F)c2)nc1 [Compound 18, N-(3-((2R,3S,5R)-6-amino-3,5-difluoro-2,5-dimethyl-2,3,4,5-tetrahydropyridin-2-yl)-4,5-difluorophenyl)-5-(methoxy-d3)picolinamide]"
36,109,1.31,"C[C@@]1(F)C[C@H](F)[C@@](C)(c2cc(NC(=O)c3ccc(Cl)cn3)ccc2F)N=C1N [Compound 9, N-(3-((2R,3S,5R)-6-amino-3,5-difluoro-2,5-dimethyl-2,3,4,5-tetrahydropyridin-2-yl)-4-fluorophenyl)-5-chloropicolinamide]"
81,107,0.95,"[2H]C([2H])([2H])Oc1ccc(C(=O)Nc2ccc(F)c([C@@]3(C)N=C(N)[C@@](C)(F)C[C@H]3F)c2)nc1 [Compound 23, N-(3-((2R,3R,5S)-6-amino-3,5-difluoro-2,5-dimethyl-2,3,4,5-tetrahydropyridin-2-yl)-4-fluorophenyl)-5-(methoxy-d3)picolinamide]"
